Test system: AMPAR EPSCs
Test: AMPA EPSCs in hippocampal cultures
Format: cell-based, rat
Conditions: 1 μM

## C[C@H](CCCOS(=O)(=O)O)[C@H]1CC[C@H]2[C@@H]3CC[C@H]4C[C@@H](O)CC[C@]4(C)[C@H]3CC[C@]12C [MQ-221]
  Effect on AMPAR EPSCs: no effect

From patent US20220396597A1 (priority 2019, published 2022)
